Assay results published in ChEMBL document CHEMBL5335804, “Design, synthesis and biological evaluation of 2-phenylaminopyrimidine derivatives as EGFR inhibitors” (Bioorg Med Chem Lett, 2024).

Legend:
[1] = Cytotoxicity against human NCI-H838 cells harboring wild type EGFR at 500 nM; assay type: toxicity, cell-based; conditions: read-out: INH
[2] = tested on: BaF3; experiment: cells; conditions: Mus musculus
[3] = tested on: Epidermal growth factor receptor (Homo sapiens), P00533 [L858R,T790M,C797S]; conditions: dose 500.0 nM
Chain of Epidermal growth factor receptor (Homo sapiens), P00533 [L858R,T790M,C797S] (P00533 whole entry T790M/C797S/L858R): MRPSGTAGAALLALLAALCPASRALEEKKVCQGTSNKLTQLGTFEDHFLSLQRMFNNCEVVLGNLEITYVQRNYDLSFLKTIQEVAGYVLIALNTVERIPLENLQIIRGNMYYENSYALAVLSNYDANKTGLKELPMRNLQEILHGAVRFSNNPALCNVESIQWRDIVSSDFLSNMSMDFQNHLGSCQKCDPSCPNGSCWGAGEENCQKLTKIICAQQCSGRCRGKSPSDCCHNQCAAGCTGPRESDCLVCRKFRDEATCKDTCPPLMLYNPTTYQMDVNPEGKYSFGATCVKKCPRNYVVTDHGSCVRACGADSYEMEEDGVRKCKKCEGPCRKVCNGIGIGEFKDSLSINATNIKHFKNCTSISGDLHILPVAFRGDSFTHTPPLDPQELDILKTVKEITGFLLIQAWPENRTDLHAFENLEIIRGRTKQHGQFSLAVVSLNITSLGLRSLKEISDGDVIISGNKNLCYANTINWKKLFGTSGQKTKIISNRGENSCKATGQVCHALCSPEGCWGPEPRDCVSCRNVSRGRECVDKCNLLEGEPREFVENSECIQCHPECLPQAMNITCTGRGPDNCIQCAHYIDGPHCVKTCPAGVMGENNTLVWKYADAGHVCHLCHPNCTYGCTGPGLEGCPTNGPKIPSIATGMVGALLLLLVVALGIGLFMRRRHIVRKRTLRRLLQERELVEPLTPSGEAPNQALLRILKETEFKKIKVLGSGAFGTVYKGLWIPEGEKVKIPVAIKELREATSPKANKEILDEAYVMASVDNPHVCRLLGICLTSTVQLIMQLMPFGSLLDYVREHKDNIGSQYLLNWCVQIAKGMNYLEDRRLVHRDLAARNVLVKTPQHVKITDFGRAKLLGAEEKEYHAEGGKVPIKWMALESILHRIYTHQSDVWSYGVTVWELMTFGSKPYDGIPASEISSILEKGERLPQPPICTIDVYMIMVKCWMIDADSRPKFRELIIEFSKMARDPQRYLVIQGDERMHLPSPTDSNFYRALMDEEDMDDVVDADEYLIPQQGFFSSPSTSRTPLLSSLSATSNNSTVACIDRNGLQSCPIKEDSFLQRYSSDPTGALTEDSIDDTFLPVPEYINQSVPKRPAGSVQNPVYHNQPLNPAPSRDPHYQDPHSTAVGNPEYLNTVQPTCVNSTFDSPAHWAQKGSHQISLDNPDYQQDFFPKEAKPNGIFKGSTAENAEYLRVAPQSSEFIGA

| SMILES | IC50 [2] | inhibition [3] | cytotoxicity at 0.5 µM [1] |
| --- | --- | --- | --- |
| COc1cc(N2CCC(N3CCN(C)CC3)CC2)ccc1Nc1ncc(Cl)c(Nc2ccccc2P(C)(C)=O)n1 [BRIGATINIB] | 542 nM | 84.6% | 92.4% |
| COc1cc(N2CCC(N3CCN(C)CC3)CC2)c(C)cc1Nc1nccc(-n2cc(CNC(CO)C(C)C)c(-c3ccccc3)n2)n1 (stereo not drawn) | 292 nM |  | 31.8% |
| COc1cc(N2CCC(N3CCN(C)CC3)CC2)c(C)cc1Nc1nccc(-n2cc(CNCCO)c(-c3ccccc3)n2)n1 | 485 nM |  | 33.2% |

Further lines, with some results ahead:

| IC50 [2] | inhibition [3] | SMILES | cytotoxicity at 0.5 µM [1] |
| --- | --- | --- | --- |
| 143 nM |  | COc1cc(N2CCC(N3CCN(C)CC3)CC2)c(C)cc1Nc1nccc(-n2cc(CNC(C)CO)c(-c3ccccc3)n2)n1 (stereo not drawn) | 25.6% |
| 106 nM |  | COc1cc(N2CCC(N3CCN(C)CC3)CC2)c(C)cc1Nc1nccc(-n2cc(CN[C@@H](C)CO)c(-c3ccccc3)n2)n1 | 14.9% |
| 260 nM |  | COc1cc(N2CCC(N3CCN(C)CC3)CC2)c(C)cc1Nc1nccc(-n2cc(CN[C@H](C)CO)c(-c3ccccc3)n2)n1 | 17.1% |
